This note sets out measurements from the OligoGym collection.

The series has as its target UBE2B. Briefly: reporter assay of Huesken 2005. To be noted: siRNA. In general terms: In a reporter assay the amount or activity of a reporter protein is the signal.

Oligonucleotides are written 5' to 3', each unit as a sugar letter and its base; * is a phosphorothioate linkage, no mark a phosphodiester; rarer units and linkages stand in square brackets, end groups in braces. Plain capitals give the bases only. d = 2'-deoxy (DNA); r = 2'-OH (RNA)
Also: test concentration or dose not given here.

Substance “sense rGrArArUrCrGrArUrGrGrArGrUrCrCrArArCrAdTdT / antisense rUrGrUrUrGrGrArCrUrCrCrArUrCrGrArUrUrCdTdG” gave a normalised inhibition (eCFP-eYFP dual reporter) of 84.1%.
As for “sense rCrGrGrCrCrArUrUrGrUrUrGrArArCrArArArGdTdT / antisense rCrUrUrUrGrUrUrCrArArCrArArUrGrGrCrCrGdAdA”, the normalised inhibition (eCFP-eYFP dual reporter) worked out at 76.5%.
“sense rUrArUrGrUrUrUrArGrArUrArUrCrCrUrUrCrAdTdT / antisense rUrGrArArGrGrArUrArUrCrUrArArArCrArUrAdTdG” yielded a normalised inhibition (eCFP-eYFP dual reporter) of 63.5%.
With “sense rUrUrArArArCrUrArGrUrArArUrArGrArArUrUdTdT / antisense rArArUrUrCrUrArUrUrArCrUrArGrUrUrUrArAdAdA”, the normalised inhibition (eCFP-eYFP dual reporter) turned out to be 46.7%.
Take “sense rArUrGrUrUrUrArGrArUrArUrCrCrUrUrCrArGdTdT / antisense rCrUrGrArArGrGrArUrArUrCrUrArArArCrArUdAdT”: the normalised inhibition (eCFP-eYFP dual reporter) was 46.7%.
“sense rArUrArGrCrCrArGrGrCrArGrCrArCrArGrCrUdTdT / antisense rArGrCrUrGrUrGrCrUrGrCrCrUrGrGrCrUrArUdTdG”: the normalised inhibition (eCFP-eYFP dual reporter) worked out at 71.2%.
Substance “sense rArArUrCrGrArUrGrGrArGrUrCrCrArArCrArUdTdT / antisense rArUrGrUrUrGrGrArCrUrCrCrArUrCrGrArUrUdCdT” had a normalised inhibition (eCFP-eYFP dual reporter) of 74.4%.
Substance “sense rGrArArGrArArUrArUrCrCrArArArUrArArArCdTdT / antisense rGrUrUrUrArUrUrUrGrGrArUrArUrUrCrUrUrCdAdG” gave a normalised inhibition (eCFP-eYFP dual reporter) of 77.7%.
Consider “sense rArGrUrUrArUrArUrUrUrGrGrArCrCrArGrArAdTdT / antisense rUrUrCrUrGrGrUrCrCrArArArUrArUrArArCrUdGdC”, for which the normalised inhibition (eCFP-eYFP dual reporter) was 79%.
In turn, “sense rArCrCrUrGrUrGrGrGrUrGrUrCrArGrUrGrGrCdTdT / antisense rGrCrCrArCrUrGrArCrArCrCrCrArCrArGrGrUdGdG” showed a normalised inhibition (eCFP-eYFP dual reporter) of 76.7%.
In turn, “sense rArUrUrUrCrArArGrCrGrGrUrUrArCrArArGrAdTdT / antisense rUrCrUrUrGrUrArArCrCrGrCrUrUrGrArArArUdCdC” showed a normalised inhibition (eCFP-eYFP dual reporter) of 78.2%.
The same measure for “sense rArGrArArUrCrGrArUrGrGrArGrUrCrCrArArCdTdT / antisense rGrUrUrGrGrArCrUrCrCrArUrCrGrArUrUrCrUdGdA”: 64.8%.
With “sense rCrArGrCrArCrArGrCrUrUrUrArUrCrArGrGrAdTdT / antisense rUrCrCrUrGrArUrArArArGrCrUrGrUrGrCrUrGdCdC” the figure was 77.5%.
In turn, “sense rUrCrCrArArArUrArArArCrCrArCrCrArArCrUdTdT / antisense rArGrUrUrGrGrUrGrGrUrUrUrArUrUrUrGrGrAdTdA” came in with a normalised inhibition (eCFP-eYFP dual reporter) of 61.8%.
“sense rGrUrUrUrCrGrGrCrCrArUrUrGrUrUrGrArArCdTdT / antisense rGrUrUrCrArArCrArArUrGrGrCrCrGrArArArCdTdC” returned a normalised inhibition (eCFP-eYFP dual reporter) of 61.6%.
Consider “sense rArArCrCrGrArArUrCrCrUrArArCrArGrUrCrCdTdT / antisense rGrGrArCrUrGrUrUrArGrGrArUrUrCrGrGrUrUdCdA”, for which the normalised inhibition (eCFP-eYFP dual reporter) is 49.9%.
The substance “sense rArCrGrArGrArArUrArUrGrArGrArArArArGrAdTdT / antisense rUrCrUrUrUrUrCrUrCrArUrArUrUrCrUrCrGrUdTdT” displayed a normalised inhibition (eCFP-eYFP dual reporter) of 84.2%.
Take “sense rArGrUrCrCrArArCrArUrArUrGrArUrGrUrArUdTdT / antisense rArUrArCrArUrCrArUrArUrGrUrUrGrGrArCrUdCdC”: the normalised inhibition (eCFP-eYFP dual reporter) turned out to be 83.6%.
“sense rUrCrUrGrArArArArCrArArCrArUrCrArUrGrCdTdT / antisense rGrCrArUrGrArUrGrUrUrGrUrUrUrUrCrArGrAdTdG” gave a normalised inhibition (eCFP-eYFP dual reporter) of 48.3%.
